Results from US8629100B2, “Method of inhibiting clostridium difficile by administration of oritavancin” (The Medicines Company, priority 2007, dated 2014).
“Also recorded” adds a separate entry of the source.

Tests used:
[1] = tested on: C. difficile vegetative cultures and spores; assay: Spiral gradient endpoint analysis MIC; type: cell-based
Protocol: C. difficile PCR ribotypes 001, 106 and 027 were inoculated onto Columbia blood agar and incubated anaerobically (37° C.) for 10 d. Growth was harvested into sterile saline and alcohol shocked in an equal volume of 100% ethanol for 1 h. Alcohol-shocked spore suspensions were mixed by vortexing and sonicated for 5 minutes at room temperature. C. difficile phase-bright (non-germinated) spores were separated from phase-dark (germinated) spores and cellular debris by density gradient centrifugation (4000 rpm 15 minutes) following layering onto 50% (v/v in phosphate buffered saline) Urografin 370 (Schering, Germany). The density gradient centrifugation step was performed twice. Pellets of purified spores were re-suspended in sterile saline (1 mL per 10 Columbia blood agar plates harvested). Percentage phase-bright spores, phase-dark spores and vegetative cells were recorded using phase-contrast microscopy (×100 magnification).
A spiral plater (WASP2, Don Whitley Scientific, UK) was used to apply a logarithmic antibiotic gradient onto the surface of pre-dried (37° C. 20 minutes) Brazier's agar (pH 7). Agar with logarithmic antimicrobial gradients applied to their surface remained at room temperature for 1 h to allow the antimicrobial agent to adsorb into the agar. C. difficile vegetative cultures and spores (˜10^7 cfu/mL) were inoculated onto the agar surface (FIG. 1) with a sterile cotton swab and incubated anaerobically (37° C., 24 h). D-values were measured (in mm) and converted to MICs (Paton, J. H.1990. Int J Exp Clin Chemother. 9, 31-38).

[2] = tested on: C. difficile PCR ribotype 027 spores; assay: Phase-contrast microscopy of spore germination/outgrowth; type: cell-based; conditions: 10 mg/L for 2 h, washed 3x in PBS
Protocol: C. difficile spores were also exposed to 10 mg/L antimicrobial for 2 h, washed 3× in sterile PBS, re-suspended and inoculated into Brazier's broth medium (pH 7). Samples were removed at 2, 4, 6, 24, 32 and 48 h. Slides were viewed under phase-contrast microscopy and percentages of phase-bright spores, phase-dark spores and vegetative cells were recorded (FIG. 4).
Statistical analyses were performed by transforming percentage data using an Arcsin Transformation and analysed using a Wilcoxon signed rank test. P<0.05 was considered statistically significant. Supra-MIC concentrations of all antimicrobials prevented outgrowth but not germination of C. difficile spores.

[3] = tested on: C. difficile PCR ribotype 001 (vegetative, spores); assay: Growth on antibiotic-exposed cellulose acetate filters (Example 3C); type: cell-based; conditions: for Growth of vegetative C. difficile on filters through which antibiotic had been filtered: PCR ribotype 001 overnight culture, anaerobic incubation; for Growth of C. difficile spores on filters through which antibiotic had been filtered: PCR ribotype 001 spores
Protocol: One mL solutions (containing no C. difficile spores) were processed as in Experiment 2B and filters placed onto Braziers CCEY agar. Onto the filters were inoculated 2×20 μL of:
a) Vegetative C. difficile (an overnight culture of PCR ribotype 001)
b) C. difficile spores (PCR ribotype 001), or
Growth/no growth was recorded following anaerobic incubation.

[4] = tested on: C. difficile PCR ribotype 027; assay: In vitro triple-stage chemostat human gut model of clindamycin-induced CDI; conditions: for Decline of cytotoxin titres during instillation: 7 days; for Recrudescence of C. difficile spore germination, proliferation and cytotoxin production: after concentrations declined below limits of detection
From the text: A single isolate of C. difficile PCR ribotype 027 was investigated. This isolate was a clinical strain recovered during an epidemic of CDI at the Maine Medical Centre (Portland, USA) in 2005. It was supplied courtesy of Dr. Rob Owens and ribotyped at the Anaerobe Reference Laboratory (Cardiff, Wales, UK) by Dr Jon Brazier.
The gut model was designed to allow the study of the intestinal microflora in the low pH, carbohydrate-excess conditions of the proximal colon and the carbohydrate-depleted, non-acidic conditions of the distal colon (Macfarlane et al., Microb Ecol 1998; 35: 180-7). Microbiological and physicochemical measurements within the gut model vessels were validated against the intestinal contents of sudden death victims (Macfarlane et al., Microb Ecol 1998; 35: 180-7). Each gut model consists of three fermentation vessels connected in a weir cascade system top-fed with growth medium at a controlled rate (D=0.015 h^−1). Vessels were sparged with oxygen-free nitrogen to ensure anaerobiosis, heated via a water-jacketed system (37° C.) and maintained at specific pH using fermenter controller units (Biosolo 3, Brighton Systems, UK) delivering 0.5 M HCl/NaOH. Vessel 1 (280 mL) was operated at pH 5.5 and high substrate availability, thus reflecting the conditions within the proximal colon, while vessels 2 and 3 (300 mL) were operated at pH 6.2 and 6.8, respectively, with low substrate availability, thus reflecting the conditions within the distal colon. The gut model was primed with faecal slurry ˜10% (w/v) and allowed to equilibrate with respect to bacterial populations for 14 days.
Faecal samples were collected from five healthy elderly (>65 years) volunteers and immediately transported to the laboratory under anaerobic conditions (GasPak, Oxoid, Basingstoke, UK). […] C. difficile-negative faeces were pooled and a coarse-filtered slurry (˜10% w/v) in sterile pre-reduced phosphate-buffered saline was prepared. Vessels of the gut models were filled to approximately two-thirds volume, and the growth medium pumps were started.
Major culturable components of the indigenous gut microflora and C. difficile were enumerated by viable counting (log10 cfu/mL) on selective and non-selective agars as reported previously (Freeman et al., J Antimicrob Chemother 2005; 56: 717-25). Bacterial groups enumerated were: total facultative anaerobes, facultatively anaerobic lactose fermenters, total anaerobes, bifidobacteria, Bacteroides fragilis group, total clostridia, lactobacilli, enterococci, total C. difficile and C. difficile spores. C. difficile cytotoxin production was quantified using a Vero cell cytotoxicity assay as described previously (Freeman et al., J Antimicrob Chemother 2003; 52: 96-102). Cytotoxin titres were expressed in log10 relative units (RU). Only C. difficile total bacterial counts, spore counts and cytotoxin titres were enumerated in vessel 1 of the gut model.
The use of the gut model to evaluate therapeutic interventions for CDI has been described previously (Freeman et al., J Antimicrob Chemother 2007; 60: 83-91; Freeman et al., J Antimicrob Chemother 2005; 56: 717-25). Briefly, following inoculation of each gut model with the faecal slurry, no further interventions were made for 13 days (period A). During period A, bacterial populations were enumerated every 2 days. Next (day 14), vessel 1 of each gut model was inoculated with a single inoculum of ˜10^7 cfu C. difficile PCR ribotype 027 spores (Freeman et al., J Antimicrob Chemother 2003; 52: 96-102), with no further interventions for 7 days (period B). From this point onwards, bacterial populations were enumerated daily.

[5] = tested on: C. difficile (CD) ATCC 43255; assay: Hamster model of CDI, oral administration; type: in vivo, Syrian golden hamsters; conditions: for Toxins A and B in caecal contents: ORI 100 mg/kg (PEG400) on Day 20 PI, VA 50 mg/kg once daily
[6] = day 2 of instillation (64 mg/L two times daily), vessel 3

Compound: CN[C@H](CC(C)C)C(=O)N[C@H]1C(=O)N[C@@H](CC(N)=O)C(=O)N[C@H]2C(=O)N[C@H]3C(=O)N[C@H](C(=O)N[C@H](C(=O)O)c4cc(O)cc(O)c4-c4cc3ccc4O)[C@H](O[C@H]3C[C@](C)(N)[C@@H](O)[C@H](C)O3)c3ccc(c(Cl)c3)Oc3cc2cc(c3O[C@@H]2O[C@H](CO)[C@@H](O)[C@H](O)[C@H]2O[C@H]2C[C@](C)(NCc3ccc(-c4ccc(Cl)cc4)cc3)[C@@H](O)[C@H](C)O2)Oc2ccc(cc2Cl)[C@H]1O [oritavancin, N-(4-(4-chlorophenyl)benzyl)A82846B]
- MICs against C. difficile spores lower than against vegetative cells ([1]; Brazier's agar pH 7, 24 h): 5-13 fold
- Outgrowth of C. difficile spores prior-exposed to antimicrobial [2]: much lower than control; also recorded: significantly inhibited
- Growth of vegetative C. difficile on filters through which antibiotic had been filtered [3]: Greatly reduced numbers
- Growth of C. difficile spores on filters through which antibiotic had been filtered [3]: unrecoverable
- Vegetative C. difficile recovered on exposed filters ([3]; on one plate): 1 cfu
- Longer time for cytotoxin titres to decline to undetectable levels than in vancomycin experiment [4]: 5 days
- C. difficile total counts and spore counts ([4]; 1 day later (day 3 of instillation) and rest of period E, LOD ~1.22 log10 cfu/mL): below the limits of detection
- Time to cytotoxin titres below the limits of detection ([4]; after cessation of instillation, period F): ≤ 10 days
- Decline of C. difficile spore counts [4, 6]: ~2 log10 cfu/mL
- Decline of C. difficile total counts [4, 6]: ~2 log10 cfu/mL
- Decline of cytotoxin titres during instillation ([4]; period E): 3 RU
- Recrudescence of C. difficile spore germination, proliferation and cytotoxin production ([4]; period F): No recrudescence
- C. difficile isolation after cessation of instillation ([4]; period F, remainder of the experiment): isolated sporadically at the limits of detection
- Survival up to 20 days PI ([5]; 100 mg/kg once daily oral from Day 2 for 5 days, formulated in PEG400): All the animals treated with ORI survived
- CD vegetative and spore cells in caecal content ([5]; 20 days PI, formulated in PEG400, LOD 1.47 (TC) and 1.77 (spores) Log 10 CFU/g): undetectable
- Toxins A and B in caecal contents [5]: undetectable

Compound: CN[C@H](CC(C)C)C(=O)N[C@H]1C(=O)N[C@@H](CC(N)=O)C(=O)N[C@H]2C(=O)N[C@H]3C(=O)N[C@H](C(=O)N[C@H](C(=O)O)c4cc(O)cc(O)c4-c4cc3ccc4O)[C@H](O)c3ccc(c(Cl)c3)Oc3cc2cc(c3O[C@@H]2O[C@H](CO)[C@@H](O)[C@H](O)[C@H]2O[C@H]2C[C@](C)(N)[C@H](O)[C@H](C)O2)Oc2ccc(cc2Cl)[C@H]1O [vancomycin]
- MICs for C. difficile vegetative cells versus spores ([1]; data not shown): did not differ substantially
- Outgrowth of C. difficile spores prior-exposed to antimicrobial [2]: not observed
- Growth of vegetative C. difficile on filters through which antibiotic had been filtered [3]: grew
- Growth of C. difficile spores on filters through which antibiotic had been filtered [3]: good growth
- Time C. difficile remained as spores before recurrent germination, proliferation and cytotoxin production ([4]; after cessation of instillation, vessel 2): 12 days
- Time C. difficile remained as spores before recurrent germination, proliferation and cytotoxin production ([4]; after cessation of instillation, vessel 3): 13 days
- Effect on C. difficile spore counts ([4]; during instillation, period E): unaffected
- Decline of cytotoxin titres during instillation ([4]; period E): 3 RU
- C. difficile total counts by the end of the experiment ([4]; period F): ~6 login cfu/mL
- Cytotoxin titres by the end of the experiment ([4]; period F): 5 RU
- Recrudescence of C. difficile spore germination, proliferation and cytotoxin production ([4]; period F): Recrudescence
- Toxins A and B in caecal contents [5]: High level
